Source: ChEMBL document CHEMBL1146616, “Synthesis and structure-activity relationships of open D-Ring galanthamine analogues” (Bioorg Med Chem Lett, 2003)

What was measured:
Acetylcholinesterase = Acetylcholinesterase (Electrophorus electricus, UniProt O42275)
Description: In vitro inhibitory activity against acetylcholinesterase (AChE) in Electrophorus electricus

Cholinesterase [1] = target: T1, Cholinesterase (Homo sapiens, UniProt P06276)
Description: In vitro inhibitory activity against Butyrylcholinesterase (BChE) in human serum

Cholinesterase [2] = target: T1, Cholinesterase; assay: Ratio of inhibitory activity against butyrylcholinesterase (BChE) to that of acetylcholinesterase (AChE)

Chain of Acetylcholinesterase (O42275 whole entry): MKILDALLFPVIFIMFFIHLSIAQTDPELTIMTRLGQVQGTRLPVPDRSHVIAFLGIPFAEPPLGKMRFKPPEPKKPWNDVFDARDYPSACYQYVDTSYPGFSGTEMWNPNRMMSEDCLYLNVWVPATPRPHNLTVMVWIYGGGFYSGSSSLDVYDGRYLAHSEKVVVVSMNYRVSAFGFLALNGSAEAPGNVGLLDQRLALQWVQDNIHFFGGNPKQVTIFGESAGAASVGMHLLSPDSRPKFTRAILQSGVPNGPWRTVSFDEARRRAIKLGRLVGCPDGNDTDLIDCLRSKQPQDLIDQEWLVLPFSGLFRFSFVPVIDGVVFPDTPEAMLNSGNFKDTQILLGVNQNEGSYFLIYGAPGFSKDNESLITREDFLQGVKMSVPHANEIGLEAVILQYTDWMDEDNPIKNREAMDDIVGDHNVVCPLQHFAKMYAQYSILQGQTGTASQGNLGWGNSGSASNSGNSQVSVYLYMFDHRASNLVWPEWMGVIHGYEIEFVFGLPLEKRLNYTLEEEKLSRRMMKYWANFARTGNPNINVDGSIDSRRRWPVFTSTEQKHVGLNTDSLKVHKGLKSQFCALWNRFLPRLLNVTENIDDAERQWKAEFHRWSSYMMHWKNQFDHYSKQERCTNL
T1 sequence (P06276 whole entry): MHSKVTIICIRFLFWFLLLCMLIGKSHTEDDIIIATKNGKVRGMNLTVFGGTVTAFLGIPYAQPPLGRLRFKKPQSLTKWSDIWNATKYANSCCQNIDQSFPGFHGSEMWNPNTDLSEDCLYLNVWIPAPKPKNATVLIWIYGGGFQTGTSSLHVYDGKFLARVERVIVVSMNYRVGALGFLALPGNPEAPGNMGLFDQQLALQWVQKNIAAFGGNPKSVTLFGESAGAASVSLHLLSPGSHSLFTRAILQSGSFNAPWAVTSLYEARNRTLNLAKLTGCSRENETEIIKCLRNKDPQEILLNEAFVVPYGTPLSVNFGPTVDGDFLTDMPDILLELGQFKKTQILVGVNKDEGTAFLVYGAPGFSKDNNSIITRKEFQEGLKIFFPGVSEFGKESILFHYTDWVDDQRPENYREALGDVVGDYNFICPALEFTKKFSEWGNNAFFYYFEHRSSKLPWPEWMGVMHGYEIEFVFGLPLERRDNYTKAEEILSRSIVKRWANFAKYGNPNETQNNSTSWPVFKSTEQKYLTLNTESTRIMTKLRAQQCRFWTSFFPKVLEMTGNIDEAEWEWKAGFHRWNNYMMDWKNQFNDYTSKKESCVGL

| SMILES | IC50 (Acetylcholinesterase) | IC50 (Cholinesterase [1]) | Selectivity (Cholinesterase [2]) |
| --- | --- | --- | --- |
| CCOC(=O)N(C)CC[C@@]12C=C[C@H](O)C[C@@H]1Oc1c(OC)ccc(CO)c12 | 580 µM | 216 µM | – |
| CCOC(=O)O[C@H]1C=C[C@@]2(CCN(C)C(=O)OCC)c3c(CCl)ccc(OC)c3O[C@H]2C1 | 650 µM | 790 µM | 1.2 |
| CCOC(=O)N1CC[C@@]23C=C[C@H](O)C[C@@H]2Oc2c(OC)ccc(c23)C1 | 67 µM | 300 µM | 4.5 |
| CCOC(=O)N(C)CC[C@@]12C=C[C@H](O)C[C@@H]1Oc1c(OC)ccc(C=O)c12 | 1000 µM | 155 µM | – |
| COc1ccc2c3c1O[C@H]1C[C@@H](O)C=C[C@@]31CCN(C)OC2 | 9900 µM | 960 µM | – |
